Measurements published in PubChem BioAssay AID2060500 (Molecular Pharmacology Branch, DTP, NCI, 2025).

System: 596521-263-R-J1-PDC complex spheroids, viability % of control
Assay: Anticancer human tumor 596521-263-R-J1-PDC patient-derived soft tissue sarcoma cell line growth inhibition [GQUAD]
Settings: for IC50: curve of first compound; for viability, T/C: stronger effect = lower value
Procedure, shortened: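 Viability of tumor cells grown as complex spheroids with endothelial and stromal cells, exposed to drug combinations. Top concentration at or near clinical Cmax (else 10 microM), diluted in half-log increments.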

[1] = second compound 0.0316 µM, first compound 0.0316 µM
[2] = second compound 0.0316 µM, first compound 0.1 µM
[3] = second compound 0.0316 µM, first compound 0.316 µM
[4] = second compound 0.0316 µM, first compound 1 µM
[5] = second compound 0.0316 µM, first compound 3.16 µM
[6] = second compound 0.0316 µM, first compound 10 µM
[7] = second compound 0.1 µM, first compound 0.0316 µM
[8] = second compound 0.1 µM, first compound 0.1 µM
[9] = second compound 0.1 µM, first compound 0.316 µM
[10] = second compound 0.1 µM, first compound 1 µM
[11] = second compound 0.1 µM, first compound 3.16 µM
[12] = second compound 0.1 µM, first compound 10 µM
[13] = second compound 0.316 µM, first compound 0.0316 µM
[14] = second compound 0.316 µM, first compound 0.1 µM
[15] = second compound 0.316 µM, first compound 0.316 µM
[16] = second compound 0.316 µM, first compound 1 µM
[17] = second compound 0.316 µM, first compound 3.16 µM
[18] = second compound 0.316 µM, first compound 10 µM
[19] = second compound 1 µM, first compound 0.0316 µM
[20] = second compound 1 µM, first compound 0.1 µM
[21] = second compound 1 µM, first compound 0.316 µM
[22] = second compound 1 µM, first compound 1 µM
[23] = second compound 1 µM, first compound 3.16 µM
[24] = second compound 1 µM, first compound 10 µM
[25] = second compound 3.16 µM, first compound 0.0316 µM
[26] = second compound 3.16 µM, first compound 0.1 µM
[27] = second compound 3.16 µM, first compound 0.316 µM
[28] = second compound 3.16 µM, first compound 1 µM
[29] = second compound 3.16 µM, first compound 3.16 µM
[30] = second compound 3.16 µM, first compound 10 µM
[31] = second compound 10 µM, first compound 0.0316 µM
[32] = second compound 10 µM, first compound 0.1 µM
[33] = second compound 10 µM, first compound 0.316 µM
[34] = second compound 10 µM, first compound 1 µM
[35] = second compound 10 µM, first compound 3.16 µM
[36] = second compound 10 µM, first compound 10 µM
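Further: spheroids exposed to drugs for 7 days before viability reading.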
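Wherever viability, T/C is given: 100% = DMSO vehicle control viability.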

## CC1COCCN1c1cc(C2(S(C)(=N)=O)CC2)nc(-c2ccnc3[nH]ccc23)n1 (centres undefined) + CN(C)c1ccc(Nc2c3ccc(NC(=O)CCN4CCCC4)cc3nc3cc(NC(=O)CCN4CCCC4)ccc23)cc1
Second compound 0.0316 µM
  IC50: > 10 µM
Second compound 0.1 µM
  IC50: 9.59 µM
Second compound 0.316 µM
  IC50: > 10 µM
Second compound 1 µM
  IC50: > 10 µM
Second compound 3.16 µM
  IC50: > 10 µM
Second compound 10 µM
  IC50: 4.38 µM
[1]
  viability, T/C: 93.1%
[2]
  viability, T/C: 97.1%
[3]
  viability, T/C: 86.9%
[4]
  viability, T/C: 77.9%
[5]
  viability, T/C: 62.9%
[6]
  viability, T/C: 52.3%
[7]
  viability, T/C: 97.5%
[8]
  viability, T/C: 97.7%
[9]
  viability, T/C: 95.1%
[10]
  viability, T/C: 71.5%
[11]
  viability, T/C: 64.8%
[12]
  viability, T/C: 48%
[13]
  viability, T/C: 96.6%
[14]
  viability, T/C: 90.8%
[15]
  viability, T/C: 87.3%
[16]
  viability, T/C: 85.1%
[17]
  viability, T/C: 54.2%
[18]
  viability, T/C: 51.2%
[19]
  viability, T/C: 90.4%
[20]
  viability, T/C: 103%
[21]
  viability, T/C: 94.1%
[22]
  viability, T/C: 76.4%
[23]
  viability, T/C: 64.3%
[24]
  viability, T/C: 57.3%
[25]
  viability, T/C: 94.5%
[26]
  viability, T/C: 83.1%
[27]
  viability, T/C: 78.2%
[28]
  viability, T/C: 80%
[29]
  viability, T/C: 61.4%
[30]
  viability, T/C: 50%
[31]
  viability, T/C: 66.8%
[32]
  viability, T/C: 67.1%
[33]
  viability, T/C: 65.6%
[34]
  viability, T/C: 52.8%
[35]
  viability, T/C: 53.8%
[36]
  viability, T/C: 44.9%

## COc1cc(C2c3cc4c(cc3C(OC3OC5COC(C)OC5C(O)C3O)C3COC(=O)C23)OCO4)cc(OC)c1O (centres undefined) + Cc1cnc(CNC(=O)c2c(=O)c3ccc(N4CCCN(C)CC4)nc3n3c2sc2ccccc23)cn1
Second compound 0.0316 µM
  IC50: 2.67 µM
Second compound 0.1 µM
  IC50: > 10 µM
Second compound 0.316 µM
  IC50: 2.8 µM
Second compound 1 µM
  IC50: 1.65 µM
Second compound 3.16 µM
  IC50: 1.77 µM
Second compound 10 µM
  IC50: < 0.0316 µM
[1]
  viability, T/C: 99.8%
[2]
  viability, T/C: 83.6%
[3]
  viability, T/C: 77.8%
[4]
  viability, T/C: 53.8%
[5]
  viability, T/C: 50.7%
[6]
  viability, T/C: 42.4%
[7]
  viability, T/C: 91.8%
[8]
  viability, T/C: 92%
[9]
  viability, T/C: 75.8%
[10]
  viability, T/C: 52%
[11]
  viability, T/C: 56.6%
[12]
  viability, T/C: 45.5%
[13]
  viability, T/C: 76.6%
[14]
  viability, T/C: 73.3%
[15]
  viability, T/C: 81.6%
[16]
  viability, T/C: 58%
[17]
  viability, T/C: 50.3%
[18]
  viability, T/C: 47.8%
[19]
  viability, T/C: 65.9%
[20]
  viability, T/C: 57.5%
[21]
  viability, T/C: 55.5%
[22]
  viability, T/C: 52.2%
[23]
  viability, T/C: 51.1%
[24]
  viability, T/C: 38.1%
[25]
  viability, T/C: 56.3%
[26]
  viability, T/C: 52.1%
[27]
  viability, T/C: 55%
[28]
  viability, T/C: 46.6%
[29]
  viability, T/C: 50.4%
[30]
  viability, T/C: 33.1%
[31]
  viability, T/C: 48.8%
[32]
  viability, T/C: 37.6%
[33]
  viability, T/C: 47.1%
[34]
  viability, T/C: 40.7%
[35]
  viability, T/C: 43.5%
[36]
  viability, T/C: 19.4%
